Measurements as given in patent US20030007948A1, “Adhesive treatment for skin yeast infections” (CLOSURE MEDICAL CORPORATION, priority 2001, published 2003).

Assay: Observation of haloprogin / 2-octyl cyanoacrylate monomer composition after preparation
Assay type: physicochemical
Conditions: 30 mg haloprogin in 2 mL 2-octyl cyanoacrylate monomer
Procedure: A 2-octyl cyanoacrylate monomer composition is prepared by adding 30 mg of haloprogin, an anti-fungal agent, to 2 mL of 2-octyl cyanoacrylate monomer. The mixture is sealed in a glass vial and stirred. The characteristics of the composition are observed at about one minute after preparation and later at least twenty-four hours after preparation.

Clc1cc(Cl)c(OCC#CI)cc1Cl [haloprogin]
premature polymerization of the monomer (sealed glass vial, about one minute and at least twenty-four hours after preparation): does not cause premature polymerization | solubility in the monomer (observed at about one minute and at least twenty-four hours after preparation): soluble
